Laboratory results published in patent US20240308995A1, “O-GLYCOPROTEIN-2-ACETAMIDO-2-DEOXY-3-D-GLUCOPYRANOSIDASE INHIBITORS” (BIOGEN MA INC., priority 2018, published 2024).
Where two headings read alike, the source gives them in different places.

Assays:
[1] = target: Recombinant full length human OGA enzyme (Homo sapiens (Human), UniProt O60502); experiment: OGA Enzyme Inhibition Biochemical Assay; details: 1 nM OGA, 100 μM 4-MUGlcNAc, pH 6.4
How it was run: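 Full-length recombinant human OGA with fluorogenic 4-MUGlcNAc in McIlvaine buffer pH 6.4, 0.01% BSA; 90 min at room temperature, glycine pH 10 quench, fluorescence Ex 355/Em 460 nm. 10-point, 4-fold dilution from 20 μM; 4-parameter variable-slope fit.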

[2] = target: OGA (S400 O-GLCNAC), HEK-293T cells transfected with Tau-V5 (Homo sapiens (Human), UniProt O60502); experiment: Cellular OGA-Tau MSD Assay; assay type: cell-based; details: HEK-293T cells, Tau-S400-GlcNAc MSD readout
How it was run: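 HEK-293T cells transfected with OGA and Tau-V5 plasmids were treated overnight at 37° C with a 10-point, 3-fold titration from 1 uM. Lysates went onto V5-antibody MSD plates to capture Tau, probed with a Tau O-GlcNAc antibody and read by electrochemiluminescence; IC50 from a 4-parameter fit.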

[3] = system: P-gp (MDR1); experiment: MDR1-MDCK Efflux Ratio Assay; assay type: in vitro ADME; details: dog, read-out: MDR1-MDCK Efflux Ratio (B-A/A-B)
How it was run: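 Bidirectional (apical↔basolateral) transport across confluent MDR1-MDCK monolayers in HBSS/10 mM HEPES pH 7.4, receiver buffer with 1% BSA; 2 hr at 37° C, 5% CO2. Donor sampled at 0 and 120 min, receiver at 120 min, quantified by LC-MS/MS in triplicate. Papp, efflux ratio and percent recovery calculated.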

[4] = Rat Liver Microsome Stability Assay; assay type: in vitro ADME; details: rat liver microsomes, 1 uM compound
[5] = MDCK-MDR1, pH 7.4, MDR1-MDCK cells, 2 hr, pH 7.4

Chain of Recombinant full length human OGA enzyme (O60502 whole entry): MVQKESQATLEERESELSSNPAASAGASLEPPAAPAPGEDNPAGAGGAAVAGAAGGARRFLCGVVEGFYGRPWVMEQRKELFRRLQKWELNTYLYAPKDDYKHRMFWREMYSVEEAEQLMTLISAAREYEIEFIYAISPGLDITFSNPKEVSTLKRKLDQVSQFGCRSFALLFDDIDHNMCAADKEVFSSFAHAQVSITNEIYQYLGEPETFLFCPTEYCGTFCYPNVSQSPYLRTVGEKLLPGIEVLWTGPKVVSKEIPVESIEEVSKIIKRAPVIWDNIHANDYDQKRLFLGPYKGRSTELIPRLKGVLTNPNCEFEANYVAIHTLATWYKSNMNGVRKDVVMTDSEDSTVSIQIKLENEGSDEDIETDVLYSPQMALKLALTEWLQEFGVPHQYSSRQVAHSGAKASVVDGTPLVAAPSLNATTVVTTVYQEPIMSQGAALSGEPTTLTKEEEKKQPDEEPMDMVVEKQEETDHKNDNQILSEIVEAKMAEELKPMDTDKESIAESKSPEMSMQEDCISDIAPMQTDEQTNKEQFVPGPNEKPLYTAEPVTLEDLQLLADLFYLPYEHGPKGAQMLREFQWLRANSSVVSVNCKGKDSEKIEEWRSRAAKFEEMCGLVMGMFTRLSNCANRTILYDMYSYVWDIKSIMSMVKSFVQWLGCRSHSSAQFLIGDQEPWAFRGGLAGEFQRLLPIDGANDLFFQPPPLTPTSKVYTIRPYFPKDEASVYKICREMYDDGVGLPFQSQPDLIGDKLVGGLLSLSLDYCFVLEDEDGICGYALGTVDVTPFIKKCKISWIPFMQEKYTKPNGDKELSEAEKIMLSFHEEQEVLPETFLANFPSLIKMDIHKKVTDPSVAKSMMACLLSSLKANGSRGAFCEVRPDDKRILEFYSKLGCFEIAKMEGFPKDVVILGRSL
Chain of OGA (S400 O-GLCNAC), HEK-293T cells transfected with Tau-V5 (O60502 whole entry): as above

SMILES | IC50 [1] [nM] | IC50 [2] [nM] | efflux ratio at 2 h [3, 5] | RLM % Qh (%) [4] [%] | efflux ratio at 2 h ([3]; MDCK-MDR1, pH 7.4, repeated assay, value marked with asterisk (*))
CC(=O)Nc1ncc(CN2C[C@H](Oc3ccc(C(F)F)cn3)C[C@@H]2C)s1 [Example 1-13, N-(5-(((2S,4R)-4-((5-(difluoromethyl)pyridin-2-yl)oxy)-2-methylpyrrolidin-1-yl)methyl)thiazol-2-yl)acetamide] | 1.1 | 2 | 2.4 | 90 | –
CC(=O)Nc1nc(F)c(CN2CC[C@H](Oc3cc(C)nc(C)c3)C2)s1 [Example 1-48, (S)—N-(5-((3-((2,6-dimethylpyridin-4-yl)oxy)pyrrolidin-1-yl)methyl)-4-fluorothiazol-2-yl)acetamide] | 150 | 821 | 24.1 | 57 | –
CC(=O)Nc1ncc(CN2C[C@H](Oc3cc(C)nc(C)c3)C[C@H]2C)s1 [Example 1-61, N-(5-(((2R,4R)-4-((2,6-dimethylpyridin-4-yl)oxy)-2-methylpyrrolidin-1-yl)methyl)thiazol-2-yl)acetamide] | 7 | 39 | 45.2 | 31 | –
COc1cc(O[C@@H]2C[C@H](C)N(Cc3sc(NC(C)=O)nc3Cl)C2)ncn1 [Example 1-46, N-(4-chloro-5-(((2S,4R)-4-((6-methoxypyrimidin-4-yl)oxy)-2-methylpyrrolidin-1-yl)methyl)thiazol-2-yl)acetamide] | 1 | 38 | 3.2 | 55 | –
COc1cc(O[C@@H]2C[C@@H](C)N(Cc3cnc(NC(C)=O)s3)C2)ncn1 [Example 1-38, N-(5-(((2R,4R)-4-((6-methoxypyrimidin-4-yl)oxy)-2-methylpyrrolidin-1-yl)methyl)thiazol-2-yl)acetamide] | 250 | > 1000 | 3.9 | 32 | –
COc1cc(O[C@@H]2C[C@H](C)N(Cc3cnc(NC(C)=O)s3)C2)ncn1 [Example 1-1, N-(5-(((2S,4R)-4-((6-methoxypyrimidin-4-yl)oxy)-2-methylpyrrolidin-1-yl)methyl)thiazol-2-yl)acetamide] | < 1 | 2 | 4.8 | 31 | –
CC(=O)Nc1nc(F)c(CN2CCC[C@@H](Oc3cc(C)nc(C)c3)C2)s1 [Example 1-55, (R)—N-(5-((3-((2,6-dimethylpyridin-4-yl)oxy)piperidin-1-yl)methyl)-4-fluorothiazol-2-yl)acetamide] | 1.1 | 13 | 19 | 85 | –
COc1cc(O[C@H]2C[C@@H](C)N(Cc3cnc(NC(C)=O)s3)C2)ncn1 [Example 1-40, N-(5-(((2R,4S)-4-((6-methoxypyrimidin-4-yl)oxy)-2-methylpyrrolidin-1-yl)methyl)thiazol-2-yl)acetamide] | 720 | > 1000 | 5.3 | 20 | –
CC(=O)Nc1nc(F)c(CN2C[C@H](Oc3ncc(F)cn3)C[C@@H]2C)s1 [Example 1-112, N-(4-fluoro-5-(((2S,4R)-4-((5-fluoropyrimidin-2-yl)oxy)-2-methylpyrrolidin-1-yl)methyl)thiazol-2-yl)acetamide] | < 1 | 1 | 5.3 | 45 | –
COCCOc1cc(O[C@@H]2C[C@H](C)N(Cc3sc(NC(C)=O)nc3F)C2)ncn1 [Example 1-23, N-(4-fluoro-5-(((2S,4R)-4-((6-(2-methoxyethoxy)pyrimidin-4-yl)oxy)-2-methylpyrrolidin-1-yl)methyl)thiazol-2-yl)acetamide] | < 1 | 3 | 7.7 | 31 | –
COc1ccc(O[C@@H]2C[C@H](C)N(Cc3sc(NC(C)=O)nc3F)C2)cn1 [Example 1-114, N-(4-fluoro-5-(((2S,4R)-4-((6-methoxypyridin-3-yl)oxy)-2-methylpyrrolidin-1-yl)methyl)thiazol-2-yl)acetamide] | < 1 | 2 | 1.9 | 69 | –
CC(=O)Nc1ncc(CN2CC[C@@H](Oc3ccc(F)cn3)C2)s1 [Example 1-6, (R)—N-(5-((3-((5-fluoropyridin-2-yl)oxy)pyrrolidin-1-yl)methyl)thiazol-2-yl)acetamide] | 80 | 37 | 1.7 | 40 | –
CC(=O)Nc1nc(F)c(CN2C[C@H](Oc3cc(F)c(F)cn3)C[C@@H]2C)s1 [Example 1-102, N-(5-(((2S,4R)-4-((4,5-difluoropyridin-2-yl)oxy)-2-methylpyrrolidin-1-yl)methyl)-4-fluorothiazol-2-yl)acetamide] | < 1 | 2 | 1.2 | 82 | –
CC(=O)Nc1ncc(CN2CCC[C@H](Oc3cc(C)nc(C)c3)C2)s1 [Example 1-64, (S)—N-(5-((3-((2,6-dimethylpyridin-4-yl)oxy)piperidin-1-yl)methyl)thiazol-2-yl)acetamide] | 23 | 31 | 35.3 | 67 | –
CC(=O)Nc1ncc(CN2C[C@H](Oc3cc(NC(C)C)ncn3)C[C@@H]2C)s1 [Example 1-136, N-(5-(((2S,4R)-4-((6-(isopropylamino)pyrimidin-4-yl)oxy)-2-methylpyrrolidin-1-yl)methyl)thiazol-2-yl)acetamide] | < 1 | 2 | 32 | 24 | –

Now from value to molecule:

IC50 [1] [nM] | IC50 [2] [nM] | efflux ratio at 2 h [3, 5] | RLM % Qh (%) [4] [%] | efflux ratio at 2 h ([3]; MDCK-MDR1, pH 7.4, repeated assay, value marked with asterisk (*)) | SMILES
< 1 | 1 | 1.2 | 86 | – | CC(=O)Nc1nc(F)c(CN2C[C@H](Oc3cc(F)ccn3)C[C@@H]2C)s1 [Example 1-96, N-(4-fluoro-5-(((2S,4R)-4-((4-fluoropyridin-2-yl)oxy)-2-methylpyrrolidin-1-yl)methyl)thiazol-2-yl)acetamide]
< 1 | 2 | 12 | 88 | 12.4 | CC(=O)Nc1ncc(CN2C[C@H](Oc3cnc(Cl)cc3C)C[C@@H]2C)s1 [Example 1-17, N-(5-(((2S,4R)-4-((6-chloro-4-methylpyridin-3-yl)oxy)-2-methylpyrrolidin-1-yl)methyl)thiazol-2-yl)acetamide]
< 1 | 3 | 1.5 | 88 | – | CC(=O)Nc1nc(F)c(CN2C[C@H](Oc3cc(Cl)ccn3)C[C@@H]2C)s1 [Example 1-101, N-(5-(((2S,4R)-4-((4-chloropyridin-2-yl)oxy)-2-methylpyrrolidin-1-yl)methyl)-4-fluorothiazol-2-yl)acetamide]
< 1 | 3 | 2.9 | 57 | – | COc1cnc(O[C@@H]2C[C@H](C)N(Cc3cnc(NC(C)=O)s3)C2)cn1 [Example 1-73, N-(5-(((2S,4R)-4-((5-methoxypyrazin-2-yl)oxy)-2-methylpyrrolidin-1-yl)methyl)thiazol-2-yl)acetamide]
< 1 | 1 | 23.6 | 43 | – | CC(=O)Nc1ncc(CN2C[C@H](Oc3cc(N4CCC4)ncn3)C[C@@H]2C)s1 [Example 1-133, N-(5-(((2S,4R)-4-((6-(azetidin-1-yl)pyrimidin-4-yl)oxy)-2-methylpyrrolidin-1-yl)methyl)thiazol-2-yl)acetamide]
< 1 | 28 | 2.6 | 87 | – | CC(=O)Nc1ncc(CN2C[C@H](Oc3cc(OC4CCCC4)ncn3)C[C@@H]2C)s1 [Example 1-138, N-(5-(((2S,4R)-4-((6-(cyclopentyloxy)pyrimidin-4-yl)oxy)-2-methylpyrrolidin-1-yl)methyl)thiazol-2-yl)acetamide]
< 1 | 3 | 15.9 | 45 | – | CC(=O)Nc1nc(F)c(CN2C[C@H](Oc3cc(N4CCOCC4)ncn3)C[C@@H]2C)s1 [Example 1-103, N-(4-fluoro-5-(((2S,4R)-2-methyl-4-((6-morpholinopyrimidin-4-yl)oxy)pyrrolidin-1-yl)methyl)thiazol-2-yl)acetamide]
< 1 | 3 | 26.4 | 93 | – | CC(=O)Nc1nc(F)c(CN2C[C@H](Oc3cc(C)nc(C)c3)CC[C@@H]2C)s1 [Example 1-57, N-(5-(((2S,5R)-5-((2,6-dimethylpyridin-4-yl)oxy)-2-methylpiperidin-1-yl)methyl)-4-fluorothiazol-2-yl)acetamide]
< 1 | < 1 | 9.9 | 81 | – | COc1ccnc(O[C@@H]2C[C@H](C)N(Cc3sc(NC(C)=O)nc3F)C2)n1 [Example 1-91, N-(4-fluoro-5-(((2S,4R)-4-((4-methoxypyrimidin-2-yl)oxy)-2-methylpyrrolidin-1-yl)methyl)thiazol-2-yl)acetamide]
